Reference: article PMC10069031 (European Journal of Medical Research, 2023)
Where two headings read alike, the source gives them in different places.

Assays:
[1] = target: T1, murine CSF1R (Mus musculus, UniProt P09581); experiment: CSF1R inhibition in RAW264.7 cells (western blot of pCSF1R); assay type: cell-based; details: RAW264.7 cells; for IC50: drug 1 h, CSF1 100 ng/mL 2 min, mean ± SD (replicates), M-4, M-5 from pCSF1R bands without relating to total CSF1R; for signal of total CSF1R: western blot
T1 construct: Western blot analysis of total lysates (40 µg/lane) from mouse RAW264.7 cells treated as indicated; endogenous in cells; host or cells: RAW264.7 (murine macrophages)
T1 sequence (P09581 20-977): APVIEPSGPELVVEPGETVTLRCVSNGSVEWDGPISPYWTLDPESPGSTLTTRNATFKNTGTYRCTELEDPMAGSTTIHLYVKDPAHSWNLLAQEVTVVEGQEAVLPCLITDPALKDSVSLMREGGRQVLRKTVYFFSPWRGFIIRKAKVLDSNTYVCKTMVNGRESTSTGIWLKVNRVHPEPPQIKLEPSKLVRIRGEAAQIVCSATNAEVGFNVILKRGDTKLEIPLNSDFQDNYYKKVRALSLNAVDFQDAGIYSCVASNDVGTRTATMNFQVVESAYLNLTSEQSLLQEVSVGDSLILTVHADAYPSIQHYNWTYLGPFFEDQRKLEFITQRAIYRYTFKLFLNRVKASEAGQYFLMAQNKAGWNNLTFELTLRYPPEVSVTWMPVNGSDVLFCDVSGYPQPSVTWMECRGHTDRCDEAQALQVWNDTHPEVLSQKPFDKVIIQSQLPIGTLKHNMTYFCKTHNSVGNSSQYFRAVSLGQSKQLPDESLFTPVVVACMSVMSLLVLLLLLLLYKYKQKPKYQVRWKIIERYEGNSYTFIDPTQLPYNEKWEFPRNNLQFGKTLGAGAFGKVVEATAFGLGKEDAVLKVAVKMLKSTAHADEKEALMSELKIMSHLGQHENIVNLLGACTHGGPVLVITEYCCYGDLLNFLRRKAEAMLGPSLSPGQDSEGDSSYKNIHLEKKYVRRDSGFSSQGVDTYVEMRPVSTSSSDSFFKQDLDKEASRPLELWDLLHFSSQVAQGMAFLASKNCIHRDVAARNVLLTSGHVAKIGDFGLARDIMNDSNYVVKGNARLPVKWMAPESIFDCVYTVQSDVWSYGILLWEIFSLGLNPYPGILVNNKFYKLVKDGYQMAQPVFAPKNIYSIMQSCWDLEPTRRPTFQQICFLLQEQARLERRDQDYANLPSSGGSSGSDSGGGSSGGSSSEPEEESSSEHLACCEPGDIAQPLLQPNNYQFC
Description: (§1) RAW264.7 cells (10^6) were seeded into cell culture dishes 6 cm in diameter and incubated in 4 mL RPMI/10% fetal bovine serum (Biochrom) for 24 h at 37 °C in a humidified 5% CO2 atmosphere. Cells were washed once with phosphate-buffered saline (PBS) and starved in 3 mL RPMI/0.1% bovine serum albumin for another 24 h. Cells were then treated for 1 h at 37 °C with drugs at the indicated final concentrations, with 0.5% DMSO as vehicle control, or left untreated, and finally stimulated for 2 min at 37 °C with 100 ng/mL recombinant mouse CSF1 (R&D Systems) by adding 1 mL prewarmed starving medium containing 400 ng/mL CSF1. Dishes were placed on ice and cells were immediately washed with ice-cold PBS and lysed with 50 µL lysis buffer (50 mM HEPES pH 7.5, 150 mM NaCl, 1.5 mM MgCl2, 10% glycerol, 1% Triton X-100, 0.5% desoxycholate, 0.2% sodium dodecyl sulfate, 1 mM ethylene glycol-bis[β-aminoethyl ether]-N,N,N′,N′-tetraacetic acid, 100 mM NaF, 10 mM Na4P2O7, 1 mM Na3VO4, 1% Phosphatase Inhibitor Cocktail 3 [Sigma-Aldrich], 1 mM phenylmethyl sulfonyl fluoride, Complete Protease Inhibitor Cocktail [Roche CustomBiotech; 1 tablet/10 mL], and 50 U/mL Benzonase [Sigma-Aldrich]). Lysed cells were scraped into Eppendorf tubes, incubated on ice for 20 min, and centrifuged at 4 °C for 10 min at 13,000 rpm; supernatants (lysates) were transferred into new tubes and stored at −80 °C.
(§2) Protein concentrations were determined using Pierce bicinchoninic acid assay (Thermo Fisher Scientific) and 40 µg/lane of total lysate was separated by SDS-PAGE on 4–12% Criterion XT Bis–Tris Gels (Bio-Rad) and subsequently transferred to polyvinylidene difluoride membranes using the Trans Blot Turbo Blotting System (Bio-Rad). For antigen detection, membranes were blocked with PBS Odyssey blocking reagent (LI-COR Biosciences) for 1 h at room temperature (RT). Primary antibodies were incubated overnight at 4 °C and the fluorescent secondary antibodies were incubated for 1 h at RT. After each antibody incubation, blots were washed with PBS with 0.05% Tween 20 (Carl Roth) for 15–30 min at RT. Fluorescent signals were quantitatively captured using the Odyssey DLx Infrared Imaging System (LI-COR Biosciences) and the half-maximal inhibitory concentration (IC50) values were calculated using GraphPad software (version 7 or newer).

[2] = tested on: AKT; experiment: Inhibition of AKT activation in CSF1-stimulated RAW264.7 cells (western blot); assay type: cell-based, mouse; details: mean ± SD (replicates), read-out: Mean kinase IC50 values: P(S473)AKT [WB]
Description: as §1, §2

[3] = tested on: ERK1/2; experiment: Inhibition of ERK activation in CSF1-stimulated RAW264.7 cells (western blot); assay type: cell-based, mouse; details: mean ± SD (replicates), read-out: Mean kinase IC50 values: P(T185,202;Y187,204) ERK1/2 [WB]
Description: as §1, §2

[4] = target: VEGFR2 (Homo sapiens, UniProt P35968); experiment: Competition binding assay, reference kinase
VEGFR2, sequence (P35968 20-1356, species assumed): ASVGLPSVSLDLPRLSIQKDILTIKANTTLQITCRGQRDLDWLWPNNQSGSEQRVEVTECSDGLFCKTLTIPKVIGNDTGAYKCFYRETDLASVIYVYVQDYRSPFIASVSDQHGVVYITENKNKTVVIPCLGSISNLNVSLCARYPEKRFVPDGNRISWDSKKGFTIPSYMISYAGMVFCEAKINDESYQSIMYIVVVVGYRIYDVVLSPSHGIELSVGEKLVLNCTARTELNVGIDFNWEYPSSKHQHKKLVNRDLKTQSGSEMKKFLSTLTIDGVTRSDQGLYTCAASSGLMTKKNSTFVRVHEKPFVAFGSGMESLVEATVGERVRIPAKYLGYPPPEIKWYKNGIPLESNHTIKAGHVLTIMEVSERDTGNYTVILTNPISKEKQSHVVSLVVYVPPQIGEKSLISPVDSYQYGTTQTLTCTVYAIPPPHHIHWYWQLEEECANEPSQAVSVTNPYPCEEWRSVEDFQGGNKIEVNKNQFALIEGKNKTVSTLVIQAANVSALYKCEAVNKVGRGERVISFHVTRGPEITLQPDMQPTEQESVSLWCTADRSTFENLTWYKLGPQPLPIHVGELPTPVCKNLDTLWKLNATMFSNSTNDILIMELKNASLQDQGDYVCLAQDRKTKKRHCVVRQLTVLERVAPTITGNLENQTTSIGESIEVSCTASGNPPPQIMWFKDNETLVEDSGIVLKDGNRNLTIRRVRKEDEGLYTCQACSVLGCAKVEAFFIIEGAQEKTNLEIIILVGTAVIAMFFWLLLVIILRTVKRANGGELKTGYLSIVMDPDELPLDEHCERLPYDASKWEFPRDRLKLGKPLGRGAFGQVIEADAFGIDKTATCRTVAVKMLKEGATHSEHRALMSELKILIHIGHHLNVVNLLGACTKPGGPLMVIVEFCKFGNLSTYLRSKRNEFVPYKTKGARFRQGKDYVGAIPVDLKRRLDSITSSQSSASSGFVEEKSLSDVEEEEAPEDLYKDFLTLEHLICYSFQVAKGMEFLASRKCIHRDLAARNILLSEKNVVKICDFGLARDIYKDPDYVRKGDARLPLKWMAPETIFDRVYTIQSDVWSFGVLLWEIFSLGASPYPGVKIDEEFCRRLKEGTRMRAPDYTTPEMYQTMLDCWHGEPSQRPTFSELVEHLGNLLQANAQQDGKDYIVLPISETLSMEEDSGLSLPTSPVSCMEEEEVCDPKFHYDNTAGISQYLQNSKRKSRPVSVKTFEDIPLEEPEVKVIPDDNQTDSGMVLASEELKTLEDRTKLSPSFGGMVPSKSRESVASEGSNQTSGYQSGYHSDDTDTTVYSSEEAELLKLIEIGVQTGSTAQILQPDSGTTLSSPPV

[5] = Binding to mouse plasma; assay type: in vitro ADME
[6] = read-out: Mean kinase IC50 values: P(Y559)CSF1R [WB]
[7] = read-out: Mean kinase IC50 values: P(Y721)CSF1R [WB]

Row | SMILES | IC50 [1, 6] [nM] | IC50 [1, 7] [nM] | IC50 [2] [nM] | IC50 [3] [nM] | IC50 [4] [nM] | signal of total CSF1R [1] | unbound fraction [5] [%]
1 | CNC(=O)c1cc(Oc2ccc(NC(=O)Nc3ccc(Cl)c(C(F)(F)F)c3)c(F)c2)cc[n+]1[O-] [M-2] | 66 ± 17 | 18 ± 7 | 63 ± 37 | 239 ± 239 |  |  | 
2 | NC(=O)c1cc(Oc2ccc(NC(=O)Nc3ccc(Cl)c(C(F)(F)F)c3)c(F)c2)ccn1 [M-4] | 273 ± 101 | 185 ± 29 | 276 ± 30 | 783 ± 34 | 37 | destabilized | 0.332
3 | NC(=O)c1cc(Oc2ccc(NC(=O)Nc3ccc(Cl)c(C(F)(F)F)c3)c(F)c2)cc[n+]1[O-] [M-5] | 19 ± 15 | 18 ± 14 | 93 ± 110 | 276 ± 197 |  | destabilized | 
